According to patent US20170042148A1, “USE OF A DICARBOXYLIC ACID TO CONTROL THE GROWTH OF HOLOPARASITIC OR HEMIPARASITIC PLANTS” (UNIVERSITE CLAUDE BERNARD LYON I, priority 2014, published 2017):

Key:
Striga hermontica [1] = test: Herbicidal effect on Striga hermontica growth in a microtiter plate (procaulome length); assay type: in vivo; conditions: for Striga inhibition: 2 mg/mL of buffer, procaulome size after 3 days at 30° C. with GR24
Protocol: The activity of the diacids on the parasitic plants Striga and Orobanche was tested by preparing solutions of the selected diacid in water or in phosphate buffer (50 mM, pH 7) at concentrations of 1 to 20 mg/mL.
1. In a 12-well microtiter plate, filter papers (Whatman 3) are placed at the bottom of the wells and moistened with sterile water. About 30 sterilized seeds (rinsed with 70% ethanol, then 1% (w/v) Ca(ClO)2 and Tween® 20, then thoroughly with water) of the holo- or hemiparasitic plants are placed, in each well, on the surface of the filter papers. After 10 days of incubation at 30° C. and in the dark, increasing amounts of a diacid or of culture supernatant are added, in the presence of a germination stimulant, GR24. After 3 days of incubation at 30° C., the development of the parasitic plants in the presence of a diacid or of culture supernatant is compared to the negative control (water, phosphate buffer or sterile culture medium), with a macroscope coupled to a camera. The length of the procaulomes (radicles) of the holo- or hemiparasitic plants is measured in order to express the phytotoxic capacity of the tested products.

Striga hermontica [2] = test: Emergence of Striga seedlings in soil mesocosms with sorghum; assay type: in vivo; conditions: soil mesocosm with sorghum, after 2 months
Protocol: 2. Striga hermontica seeds (about 100 seeds/pot) and sorghum seeds (1 seed/pot) were introduced simultaneously into soil mesocosms, in the presence of increasing amounts of malic acid (2 and 20 g/L) or of culture supernatant, then grown in a greenhouse or a plot. The emergence of Striga seedlings is estimated visually, after 2 months of incubation. Phytotoxic capacity is estimated by comparison with a control without added malic acid or culture supernatant. A decrease of 22% in the number of Striga seedlings having emerged, compared to the control condition, is observed in the presence of 2 g/L malic acid and of 90% in the presence of 20 g/L malic acid. In the presence of the bacterial supernatant, a decrease of 58% in the number of Striga compared to the control condition was observed.

| Compound | Striga inhibition (Striga hermontica [1]) | other results |
| --- | --- | --- |
| O=C(O)CC(O)C(=O)O (racemic) [DL-Malic acid] | + (weak inhibition (procaulome size between 0.2 and 0.8 mm)) |  |
| O=C(O)C#CC(=O)O [Acetylene dicarboxylic acid] | ++ (strong inhibition (procaulome size < 0.2 mm)) |  |
| O=C(O)CCCC(=O)O [Glutaric acid] | ++ (strong inhibition (procaulome size < 0.2 mm)) |  |
| O=C(O)C[C@H](O)C(=O)O [L-Malic acid] | ++ (strong inhibition (procaulome size < 0.2 mm)) | effect on procaulome growth (FIG. 1) (Striga hermontica [1]; supernatant of strain grown in Nfb*, L-malic acid 2 mg/mL in phosphate buffer): inhibitory effect |
| O=C(O)/C=C\C(=O)O [Maleic acid] | ++ (strong inhibition (procaulome size < 0.2 mm)) |  |
| O=C(O)CC(=O)O [Malonic acid] | ++ (strong inhibition (procaulome size < 0.2 mm)) |  |
| O=C(O)C(=O)O [Oxalic acid] | ++ (strong inhibition (procaulome size < 0.2 mm)) |  |
| O=C(O)CC(O)C(=O)O (stereo not shown) [malic acid] |  | decrease in the number of Striga seedlings having emerged, compared to the control condition (Striga hermontica [2]; 2 g/L malic acid): 22%; decrease in the number of Striga seedlings having emerged, compared to the control condition (Striga hermontica [2]; 20 g/L malic acid): 90% |
